Legend:
[1] = Particle size detection of LNP (Brookhaven NanoBrook Omni, DLS); type: physicochemical
Protocol: Step 1. Preparation of a lipid solution and a nucleic acid solution: unless otherwise specified, all aqueous solutions involved in examples were prepared from deionized water without nucleases. An ionizable lipid, a phospholipid (disaturated phosphatidylcholine (DSPC) or dioleoylphosphatidylethanolamine (DOPE)), cholesterol and a PEG lipid (DMG-PEG2000) were mixed in a molar ratio of 50/10/38.5/1.5 (containing DSPC, formulation 1) or 36.5/16/46.5/2.5 (containing DOPE, formulation 2) and dissolved into an ethanol solution. Meanwhile, a nucleic acid (a mass ratio of ionizable lipid/nucleic acid was 10/1) was dissolved into a citrate buffer solution of pH=3, so that a final volume ratio of the ethanol solution to the citrate solution was 1/3.
Step 2. Preparation of LNP by mixing the lipid solution with the nucleic acid solution: the lipid ethanol solution and the nucleic acid aqueous solution that were prepared in Step 1 were respectively put into a sterile syringe and placed in a Precision Nanosystem Ignite instrument, the extrusion flow speeds of the ethanol solution and the water phase solution were respectively set as 3 ml/min and 9 ml/min in instrument program settings. A microfluidic chip was inserted into the instrument and LNP preparation was initiated, and then a solution mixed by the chip was collected.
Step 2.1. Preparation of an LNP solution coating nucleic acid in a porous plate: a solution of an ionizable lipid, a phospholipid (DSPC or DOPE), cholesterol and a PEG lipid (DMG-PEG2000) in ethanol was added into each well of a 96-well deep plate, so that a molar ratio of four component lipids in each well was 50/10/38.5/1.5 (containing DSPC, formulation 1) or 36.5/16/46.5/2.5 (containing DOPE, formulation 2). Then, a citrate buffer solution (pH=3, the mass of nucleic acid added into each well was 1/10 that of the ionizable lipid in this well) that was three times as ethanol in volume and dissolved with a nucleic acid molecule was quickly added into the well plate through a multi-channel pipette or an automatic liquid dispensing system and rapidly mixed, so as to obtain the LNP solution coating nucleic acid.
Step 3. Purification of the LNP solution: the LNP solution collected in Step 2 or Step 2.1 was subjected to dialysis-concentration-filtration operations, so as to obtain a final LNP solution coating nucleic acid for subsequent testing.
The LNP solution coating nucleic acid obtained in Step 3 was diluted so that the final lipid concentration was between 0.01 mg/ml and 0.1 mg/ml. The diluted solution was added into a sample reservoir, and then subjected to particle size detection in a Brookhaven NanoBrook Omni instrument.

[2] = system: enhanced green fluorescent protein (EGFP) gene; assay: LNP delivery of gene editing system (spCas9 mRNA + sgGFP), GFP knockout by flow cytometry; type: cell-based; conditions: HEK 293/eGFP-aavs1 cells, 200 ng total RNA per well, 48 h, average
Protocol: LNPs were prepared by using a composition ratio in formulation 2 and simultaneously coating spCas9 mRNA and sgRNA (sgGFP sequence: […]) with lipid 284, wherein N/P was 6, and a mass ratio of mRNA to sgRNA was 3/1. By DLS detection, the particle size of LNP was about 130 nm, PDI was 0.15, and the RNA encapsulation efficiency was greater than 95%. An HEK 293/eGFP-aavs1 stable cell line stably expressing a green fluorescence protein (GFP) was inoculated into a 96-well cell culture plate at a density of 40,000 cells per well. After incubation for 24 h, LNPs containing 200 ng of total RNA were added into each well, cells were collected after 48 h and the knockout efficiency cells of GFP were detected on a flow cytometer.

[3] = Determination of total nucleic acid and encapsulation efficiency (Quant-iT RiboGreen RNA kit); type: physicochemical
Protocol: The content of nucleic acids in an LNP sample was determined through a Quant-iT™ RiboGreen® RNA detection kit (Thermofisher). The detection of total RNA concentration: 5 µl of to-be-detected sample was placed into 2 ml of ep tube, 245 µl of 1xTE Buffer was added, and the above materials were evenly mixed to obtain a "diluted sample". 100 µl of the above "diluted sample" was taken, 100 µl of 10% TritonX-100 solution was added, the above materials were sufficiently and evenly mixed, and then the obtained mixture was demulsified for 15 min in metal bath under the conditions of 37°C and 300 rpm; and 80 µl of 1xTE Buffer was added into an ELISA plate, 20 µl of demulsified sample was taken and added into the ELISA plate to be evenly mixed, and then 100 µl of fluorescence dye (2000-fold dilution) solution was added.
Detection of free RNA concentration: 90 µl of 1xTE Buffer was added into the ELISA plate, 10 µl of the above "diluted sample" was taken, and 100 µl of fluorescence dye (2000-fold dilution) solution was added.
Meanwhile, a series of standard solutions having different concentrations were set in the ELISA plate as quantitative standard curves. The samples were loaded onto the ELISA plate to detect fluorescence signals (with an excitation wavelength of 480 nm and an emission detection wavelength of 520). A corresponding RNA concentration was obtained after the fluorescence signal in each well was converted via the standard curve.
Calculation method of encapsulation efficiency: EE(%) = (Concentration of total mRNA−concentration of free mRNA)/(Concentration of total mRNA)∗100% [formula]

[4] = system: 293T cells; assay: In vitro eGFP plasmid DNA transfection; type: cell-based; conditions: 100 ng plasmid DNA per well, 48 h, fluorescence microscope, versus lipofectamine 3000
Protocol: 293T cells were inoculated into a 96-well cell culture plate at a density of 40,000 cells per well, LNPs prepared from lipid 284 and lipid 424 was used to coat plasmid DNA expressing eGFP, lipofectamine 3000 was used as a control group, 100 ng of plasmid DNA coated by the above vehicle was given to cells per well, the expression of eGFP was observed through a fluorescence microscope after co-culture for 48 h.

[5] = system: C57Bl/6 mice; assay: Luciferase mRNA delivery in mice, IVIS chemiluminescence; type: in vivo
Protocol: The animal experiments were reviewed and approved by the Ethics Committee of Zhejiang Medical College and the Ethics Committee of Zhejiang University of Technology. 6- to 8-week-old male C57Bl/6 mice were randomly grouped with 3 mice in each group. The mice in each group received a lipid nanoparticle coating mRNA expressing a luciferase via tail vein injection at a dose of 0.25 mg/kg mouse body weight (calculated by the mass of coated mRNA). […] The mRNA delivery effect of the lipid nanoparticle is quantitatively compared through a total chemiluminiscence quantity (Total Flux p/s) of a mouse whole body within unit time (shown in Table 5).
Table 13 and Table 14 show whole body chemiluminescent signals when LNPs (formulation 2) composed of the lipids in some examples deliver Flue mRNA in mice. The delivery dose of Flue mRNA was 0.25 mg/kg. 6 h after LNP injection, 150 mg/kg of D-luciferin was intraperitoneally injected into the mice, and then the whole body chemiluminescent signals were collected in the IVIS imaging system after 10 min. […]

[6] = system: 293T cells; assay: In vitro delivery of luciferase mRNA by LNPs, 293T cells; type: cell-based, Human; conditions: 100 ng luciferase mRNA per well, 24 h; ratio to naked mRNA control; result in words
Protocol: (§1) Human embryonic kidney cells (293T cells) and human non-small cell lung cancer cell lines (A549 cells) were obtained from the Chinese Type Culture Collection Center and cultured in DMEM high glucose culture medium containing 10% fetal bovine serum under the environment of 37°C and 5% CO2. The cells were inoculated in a 96-well cell culture plate in a density of 32,000 cells per well. LNPs coating mRNA expressing luciferase (Trilink, USA) were taken and added into the wells at a dose of 100 ng of mRNA per well. Meanwhile, control wells were set on each culture plate, and 100 ng of naked mRNA that was not coated by LNPs was added into each well. The cell culture plate was placed in a cell incubator for 24 h of co-culture under the conditions of 37°C and 5% CO2, and then the transfection effect of mRNA was detected through a One-LumiTM firefly luciferase reporter gene detection kit. The transfection results of LNPs in 293T cells are shown in FIG. 1 to FIG. 6 and FIG. 13 (upper), and the transfection results of LNPs in A549 cells are shown in FIG. 7 to FIG. 12 and FIG. 13 (lower). The transfection efficiency is expressed as a ratio of chemiluminescent intensity of LNP group to chemiluminescent intensity of control group (direct delivery of naked luciferase mRNA that is not coated by LNP).

[7] = system: respiratory syncytial virus (RSV); assay: RSV mRNA vaccine in mice, RSV true virus neutralizing antibody titers; type: in vivo, BALB/c mice; conditions: 10 µg per mouse i.m., two immunizations three weeks apart, serum 14 days after the second; result in words versus antigen protein or SM102
Protocol: An RSV antigen mRNA sequence with a pre-fusion F protein conformation was prepared by a cap analogue co-transcription method, the sequence information is as shown in sequence 1 (SEQ ID NO: 1), and the amino acid sequence of the expressed antigen protein is as shown in sequence 2 (SEQ ID NO: 2). LNPs containing RSV-mRNA were prepared by respectively using lipid 174 and sm102 in a lipid ratio of formulation 1, wherein N/P was 6. The particle sizes and mRNA encapsulation efficiency data of two LNPs are as follows: lipid 174 has a particle size of 77.6 nm and an encapsulation efficiency of 96.2%; and sm102 has a particle size of 96.1 nm and an encapsulation efficiency of 97.9%. The LNP preparation encapsulating RSV mRNA and an F protein antigen with a pre-fusion conformation were intramuscularly administrated to BALB/c mice at a dose of 10 µg per mouse, with immunization once every three weeks for two immunizations in total. 14 days after secondary immunization, mouse serum was collected and submitted to CRO for detection of RSV true virus neutralizing antibody titers.

[8] = system: A549 cells; assay: In vitro delivery of luciferase mRNA by LNPs, A549 cells; type: cell-based, human; conditions: 100 ng luciferase mRNA per well, 24 h; ratio to naked mRNA control; result in words
Protocol: as §1

[9] = formulation 2, spCas9 mRNA and sgRNA 3/1, N/P 6, DLS
[10] = LNP formulation 2 (SM102: formulation 1), luciferase mRNA 0.25 mg/kg, tail vein, C57Bl/6 mice, whole body signal 6 h after LNP, 10 min after D-luciferin 150 mg/kg i.p.
[11] = LNPs after coating mRNA (luciferase)
[12] = LNP with RSV-mRNA, lipid ratio of formulation 1, N/P 6

With `CCCCCCCCCCCCCC(=O)N(CCCN(C)C)C(C(=O)NCCCCCCOC(=O)C(CCCCCC)CCCCCCCC)C(C)(C)C` (stereo not drawn) [Lipid 284] as the molecule, how does the PDI [1, 9] read?
Its PDI is 0.15.

What about the “particle size of LNP” value [1, 9] of the same molecule?
The value was “about 130 nm”.

What about the “cells with significant knockdown of GFP expression” value [2] of the same molecule?
Its value is 41.2%.

What about the RNA encapsulation efficiency ([3]; formulation 2, spCas9 mRNA and sgRNA 3/1, N/P 6) of the same molecule?
Its RNA encapsulation efficiency is “greater than 95%”.

And the “eGFP expression (delivery efficiency and positive cell ratio)” value [4]?
Its value is “delivery efficiencies and positive cell ratios exceed those in control group lipofectamine3000”.

And the “Chemiluminescent signal (p/s)” value [5, 10]?
The value was 2.42E+10 p/s.

Which PDI [1, 11] does the source give for `CCCCCCCCC(CCCCCC)C(=O)OCCCCCCNC(=O)C(N(CCCN(C)C)C(=O)CCCCCCC(=O)OCC(C)CCCCCCC)C(C)(C)C` (stereo not drawn) [Lipid 424] here?
Its PDI is 0.11.

And the “Particle size” value [1, 11]?
Its value is 153 ± 2.11 nm·days.

What about the “eGFP expression (delivery efficiency and positive cell ratio)” value [4] of the same molecule?
Its value is “delivery efficiencies and positive cell ratios exceed those in control group lipofectamine3000”.

And the “Chemiluminescent signal (p/s)” value ([5]; LNPs (formulation 2), Flue mRNA 0.25 mg/kg, tail vein injection, whole body signal 6 h after LNP injection, 10 min after 150 mg/kg D-luciferin i.p.)?
Its value is 8.40E+ 10 p/s.

With `CCCCCCCCCCCCCC(=O)N(CCCN(C)C)C(C(=O)NCCCCCCCC(=O)OC(CCCCCCCC)CCCCCCCC)C(C)(C)C` (stereo not drawn) [Lipid 174] as the molecule, how does the Particle size [1, 12] read?
Its Particle size is 77.6 nm.

What about the PDI [1, 11] of the same molecule?
Its PDI is 0.17.

And the “Particle size” value [1, 11]?
Its value is 202.44 ± 2.28 nm·days.

What about the “transfection (delivery) efficiency of LNP in 293T cells” value [6] of the same molecule?
The value was “relatively high delivery efficiency”.

And the “RSV true virus neutralizing antibody titer” value [7]?
Its value is “can efficiently stimulate the mouse to generate a neutralizing antibody targeting RSV”.

And the encapsulation efficiency [3, 12]?
Its encapsulation efficiency is 96.2%.

And the “transfection (delivery) efficiency of LNP in A549 cells” value [8]?
The value was “relatively high delivery efficiency”.

And the “Chemiluminescent signal (p/s)” value [5, 10]?
Its value is 3.15E+09 p/s.
